Results published in US6258830A, “Stable gel formulation for topical treatment of skin conditions” (Allergan Sales, Inc., priority 1999, dated 2001).
Values after ≈ are worked out from the molar mass of the structure shown.

What was measured:
[1] = In vitro release of AGN from the 0.1% gels, slope of % drug released vs. square root of time; type: physicochemical; settings: Table XVIII, beyond release of 10% of the drug
Protocol: The release of AGN through each of the 0.1% gels was studied using a previously developed release method. The collected fractions were then assayed directly using HPLC Method HL036.
The data generated from the assay of the collected fractions for each gel were used to plot the release profile of the drug as the % drug released vs. square root of time. For each release profile, the slope of the linear region containing at least 6 points was calculated using linear regression. The standard deviation and correlation coefficient of each slope was also calculated.
(§1) The saturated solubility values, and slopes of the line obtained from the plot of % drug released vs. square root of time for each gel were analyzed statistically. […] RS/Discover® was used to calculate equations which fit the data and to construct response surfaces.
Drug release was studied from all […] formulated gels as described previously. The release profiles for each gel were an average of six runs, and were plotted as % Drug released vs. Square root of time.
In order to compare the release rates of drug from each formulation, the slope of the linear portion of the plot of % Drug released vs. Square root of time was computed for each of the 18 gels. The slope for each plot was obtained as an average of six runs and based on a correlation coefficient (R^2)>0.94800.

[2] = Stability of AGN formulations; type: physicochemical
[3] = Treatment of acne and psoriasis; set-up: species or system humans; settings: in vivo
[4] = Solubility of AGN in PEG 400; type: physicochemical; settings: peg 400, organic solvent or mixture
[5] = Solubility of AGN in various aqueous solutions at 35° ± 0.5° C. (Table I); type: physicochemical
[6] = Saturated solubility of AGN in the vehicle of the gels (HPLC), with Student's t-test against gel B; type: physicochemical; settings: for solubility: gel vehicle with propionic acid, propionic acid for carbomer
Protocol: To determine the saturated solubility of the drug in the vehicle of each of the 18 gel formulations, solvent systems containing the same ingredients as the gels were prepared. The saturated solubility was determined once in solutions of the vehicle without carbomer and base, and another time by substituting propionic acid for carbomer in order to ease filtration of the solution while keeping the ionic strength of the solution as close to that of the gel as possible. The solutions were filtered through a 0.45 μm filter to remove any crystals which may have formed. The resulting solutions were then diluted and their drug content was assayed using High Performance Liquid Chromatography (HPLC) as described in Method HL036.
as §1

## CCOC(=O)c1ccc(C#Cc2ccc3c(c2)C(C)(C)CCS3)nc1 [AGN]
[1]
  rate of drug release over time: remains constant even after three hours
[2]; alcoholic solutions with BHT (preformulation report)
  stabilization of alcoholic solutions containing AGN: stabilized by BHT
[2]; prepared without ascorbic acid
  stability of laboratory formulation of AGN: poor stability
[3]
  activity in the treatment of acne and psoriasis: active in the treatment of acne and psoriasis
[4]
  solubility: 2200 µg/mL (≈ 6260 µM)
[5]; 0.07% Polysorbate 40, 35° C.
  solubility: 3.7 ± 0.6 µg/mL (≈ 10.5 µM)
[5]; 0.15% Polysorbate 40, 35° C.
  solubility: 9.2 ± 1.4 µg/mL (≈ 26.2 µM)
[5]; 0.30% Polysorbate 40, 35° C.
  solubility: 18.3 ± 1.8 µg/mL (≈ 52.1 µM)
[5]; 0.50% Polysorbate 40, 35° C.
  solubility: 33.2 ± 0.3 µg/mL (≈ 94.5 µM)
[5]; 1% Oleth-20/Water, 35° C.
  solubility: 73.3 ± 3 µg/mL (≈ 209 µM)
[5]; 2% Oleth-20/Water, 35° C.
  solubility: 149.2 ± 0.6 µg/mL (≈ 425 µM)
[5]; 4% Oleth-20/Water, 35° C.
  solubility: 311 ± 7 µg/mL (≈ 885 µM)
[5]; 20% Ethanol/Water, 35° C.
  Avg. Solubility: Not Detected
[5]; 20% PEG-400/Water, 35° C.
  Avg. Solubility: Not Detected
[5]; 96% Oleth-20/Water, 35° C.
  solubility: 435.2 ± 1.1 µg/mL (≈ 1240 µM)
[5]; 100% Water, 35° C.
  Avg. Solubility: Not Detected
[5]; organic solvent or mixture, 40% Ethanol/Water, 35° C.
  solubility: 147 ± 20.9 µg/mL (≈ 419 µM)
[5]; organic solvent or mixture, 40% PEG-400/Water, 35° C.
  solubility: 4.4 ± 0.5 µg/mL (≈ 12.5 µM)
[5]; organic solvent or mixture, 60% Ethanol/Water, 35° C.
  solubility: 22235 ± 7.8 µg/mL (≈ 63300 µM)
[5]; organic solvent or mixture, 60% PEG-400/Water, 35° C.
  solubility: 89.6 ± 1.1 µg/mL (≈ 255 µM)
[5]; organic solvent or mixture, 80% Ethanol/Water, 35° C.
  solubility: 8220 ± 221 µg/mL (≈ 23400 µM)
[5]; organic solvent or mixture, 80% PEG-400/Water, 35° C.
  solubility: 2160 ± 89.9 µg/mL (≈ 6150 µM)
[5]; water
  solubility in water (in words): extremely low
[6]; from solubility data
  drug present in the aqueous based gel in the form of solid particles: approximately 90%
[6]; hexylene glycol 0%, polysorbate 40 0.0%, poloxamer 407 0.0%
  solubility: 14.5 ± 0.3 µg/mL (≈ 41.3 µM)
[6]; hexylene glycol 0%, polysorbate 40 0.0%, poloxamer 407 0.2%
  solubility: 67.9 ± 4.4 µg/mL (≈ 193 µM)
[6]; hexylene glycol 0%, polysorbate 40 0.0%, poloxamer 407 0.4%
  solubility: 87.4 ± 6.6 µg/mL (≈ 249 µM)
[6]; hexylene glycol 0%, polysorbate 40 0.2%, poloxamer 407 0.0%
  solubility: 52.3 ± 2.7 µg/mL (≈ 149 µM)
[6]; hexylene glycol 0%, polysorbate 40 0.2%, poloxamer 407 0.2%
  solubility: 69.7 ± 3.2 µg/mL (≈ 198 µM)
[6]; hexylene glycol 0%, polysorbate 40 0.2%, poloxamer 407 0.4%
  solubility: 80 ± 4 µg/mL (≈ 228 µM)
[6]; hexylene glycol 0%, polysorbate 40 0.4%, poloxamer 407 0.0%
  solubility: 89.3 ± 8.8 µg/mL (≈ 254 µM)
[6]; hexylene glycol 0%, polysorbate 40 0.4%, poloxamer 407 0.2%
  solubility: 77.5 ± 0.8 µg/mL (≈ 221 µM)
[6]; hexylene glycol 0%, polysorbate 40 0.4%, poloxamer 407 0.4%
  solubility: 86.7 ± 6 µg/mL (≈ 247 µM)
[6]; hexylene glycol 2%, polysorbate 40 0.0%, poloxamer 407 0.0%
  solubility: 20.9 ± 1.7 µg/mL (≈ 59.5 µM)
[6]; hexylene glycol 2%, polysorbate 40 0.0%, poloxamer 407 0.2%
  solubility: 73.7 ± 9 µg/mL (≈ 210 µM)
[6]; hexylene glycol 2%, polysorbate 40 0.0%, poloxamer 407 0.4%
  solubility: 86.3 ± 2.6 µg/mL (≈ 246 µM)
[6]; hexylene glycol 2%, polysorbate 40 0.2%, poloxamer 407 0.0%
  solubility: 75.9 ± 3.5 µg/mL (≈ 216 µM)
[6]; hexylene glycol 2%, polysorbate 40 0.2%, poloxamer 407 0.2%
  solubility: 93.8 ± 0.1 µg/mL (≈ 267 µM)
[6]; hexylene glycol 2%, polysorbate 40 0.2%, poloxamer 407 0.4%
  solubility: 102 ± 2.9 µg/mL (≈ 290 µM)
[6]; hexylene glycol 2%, polysorbate 40 0.4%, poloxamer 407 0.0%
  solubility: 98 ± 11.7 µg/mL (≈ 279 µM)
[6]; hexylene glycol 2%, polysorbate 40 0.4%, poloxamer 407 0.2%
  solubility: 130 ± 6.2 µg/mL (≈ 370 µM)
[6]; hexylene glycol 2%, polysorbate 40 0.4%, poloxamer 407 0.4%
  solubility: 118 ± 3.8 µg/mL (≈ 336 µM)
